Measured values published in patent US10154970B2, “Methods for immunomodulation of cancer and infectious disease therapy” (The Regents of the University of California, priority 2014, dated 2018).

How the values were obtained:
[1] = system: IL-6
Method: (§1) FIG. 6. Effect of TRIP and PV combination treatment on serum cytokine levels. Serum cytokines were assessed by multiplex immunoassay 48 hours following the final dose of PV, which was administered as 8 weekly 10-μg doses. TRIP was administered daily for the last 14 days of the study.
(§2) A total of 43 wild type C57BL/6 mice were assigned to four different treatment groups: Control (n=10); and TRIP (i.e., ospemifene) 10, 50, and 100 mg/kg (n=11, all TRIP groups). All mice received a full course of tecemotide (L-BLP25) peptide vaccine (PV) immunotherapy (eight weekly 10 μg doses administered subcutaneously (s.c.) as described in Wurz G T. et al., J. Transl. Med., 11:64 (2013)). During the final 16 days of immunotherapy, mice received daily oral doses of TRIP according to treatment group assignment. TRIP oral dosing solutions were prepared by dissolving an appropriate amount of the drug in pure dimethyl sulfoxide (DMSO) and then adding peanut oil to the desired final concentration (final DMSO concentration was 2%). All doses were administered in a volume of 100 μl using 20-gauge stainless steel oral feeding needles. Control mice were given diluent only. Forty-eight hours following the final dose of PV, all mice were euthanized for the collection of blood for cytokine analysis by multiplex and spleens for assessing immune response by enzyme-linked immunosorbent spot (ELISpot) assay.

[2] = system: IFN-γ; conditions: non-tumor bearing mice, 48 hours after final PV dose
Method: as §1, §2

OCCOc1ccc(/C(=C(/CCCl)c2ccccc2)c2ccccc2)cc1 [TRIP, Z-2-[4-(4-chloro-1,2-diphenyl-but-1-enyl)-phenoxy]ethanol]
serum concentrations of IL-6, TRIP 100 mg/kg and PV compared to PV alone ([1]; TRIP 100 mg/kg + PV): significantly lower
serum IL-6 concentrations, TRIP and PV vs PV alone ([1]; non-tumor bearing mice, 48 hours after final PV dose): dose-dependently decreased
serum IFN-γ levels, TRIP and PV vs PV alone [2]: increased
